PubChem BioAssay AID1259407 (Chemical Carcinogenesis Research Information System (CCRIS), 2018)
The source made the active and inactive calls. No rule for the calls is given here.

System: CCRIS mutagenicity, Ames/micronucleus/aberration tests
Assay: CCRIS mutagenicity studies
[1] = Test System: AMES SALMONELLA TYPHIMURIUM, Strain/Indicator: TA100, Metabolic Activation: NONE, Method: STANDARD PLATE
[2] = Test System: AMES SALMONELLA TYPHIMURIUM, Strain/Indicator: TA98, Metabolic Activation: NONE, Method: STANDARD PLATE
[3] = Test System: AMES SALMONELLA TYPHIMURIUM, Strain/Indicator: TA98, Metabolic Activation: S-9, Method: STANDARD PLATE
[4] = Test System: AMES SALMONELLA TYPHIMURIUM, Strain/Indicator: TA100, Metabolic Activation: S-9, Method: STANDARD PLATE
[5] = Test System: AMES SALMONELLA TYPHIMURIUM, Strain/Indicator: TA98, Metabolic Activation: HAMSTER, LIVER, S-9, AROCLOR 1254 (10%), Method: STANDARD PLATE
[6] = Test System: AMES SALMONELLA TYPHIMURIUM, Strain/Indicator: TA98, Metabolic Activation: RAT, LIVER, S-9, AROCLOR 1254 (10%), Method: STANDARD PLATE
[7] = Test System: AMES SALMONELLA TYPHIMURIUM, Strain/Indicator: TA100, Metabolic Activation: HAMSTER, LIVER, S-9, AROCLOR 1254 (10%), Method: STANDARD PLATE
[8] = Test System: AMES SALMONELLA TYPHIMURIUM, Strain/Indicator: TA100, Metabolic Activation: RAT, LIVER, S-9, AROCLOR 1254 (10%), Method: STANDARD PLATE
[9] = Test System: AMES SALMONELLA TYPHIMURIUM, Strain/Indicator: TA1535, Metabolic Activation: HAMSTER, LIVER, S-9, AROCLOR 1254 (10%), Method: STANDARD PLATE
[10] = Test System: AMES SALMONELLA TYPHIMURIUM, Strain/Indicator: TA1535, Metabolic Activation: NONE, Method: STANDARD PLATE
[11] = Test System: AMES SALMONELLA TYPHIMURIUM, Strain/Indicator: TA1535, Metabolic Activation: RAT, LIVER, S-9, AROCLOR 1254 (10%), Method: STANDARD PLATE
[12] = Test System: AMES SALMONELLA TYPHIMURIUM, Strain/Indicator: TA1537, Metabolic Activation: HAMSTER, LIVER, S-9, AROCLOR 1254 (10%), Method: STANDARD PLATE
[13] = Test System: AMES SALMONELLA TYPHIMURIUM, Strain/Indicator: TA1537, Metabolic Activation: NONE, Method: STANDARD PLATE
[14] = Test System: AMES SALMONELLA TYPHIMURIUM, Strain/Indicator: TA1537, Metabolic Activation: RAT, LIVER, S-9, AROCLOR 1254 (10%), Method: STANDARD PLATE
[15] = Test System: AMES SALMONELLA TYPHIMURIUM, Strain/Indicator: TA1538, Metabolic Activation: HAMSTER, LIVER, S-9, AROCLOR 1254 (10%), Method: STANDARD PLATE
[16] = Test System: AMES SALMONELLA TYPHIMURIUM, Strain/Indicator: TA1538, Metabolic Activation: NONE, Method: STANDARD PLATE
[17] = Test System: AMES SALMONELLA TYPHIMURIUM, Strain/Indicator: TA1538, Metabolic Activation: RAT, LIVER, S-9, AROCLOR 1254 (10%), Method: STANDARD PLATE
[18] = Test System: MOUSE LYMPHOMA, Strain/Indicator: L5178Y (TK+/TK-), Metabolic Activation: NONE, Method: SUSPENSION/PLATE
[19] = Test System: MOUSE LYMPHOMA, Strain/Indicator: L5178Y (TK+/TK-), Metabolic Activation: RAT, LIVER, S-9, AROCLOR 1254, Method: SUSPENSION/PLATE

Measured: mutagenic call

CC(C)CCC[C@@H](C)[C@H]1CC[C@H]2[C@@H]3C[C@H]4O[C@]45C[C@@H](O)CC[C@]5(C)[C@H]3CC[C@]12C
active: Test System: CHINESE HAMSTER V-79, Strain/Indicator: V-79/6-THIOGUANINE, Metabolic Activation: NONE active; positive
inactive: Test System: CHINESE HAMSTER V-79, Strain/Indicator: V-79/OUABAIN, Metabolic Activation: NONE inactive; negative

c1cnc2c(c1)[C@@H]1O[C@@H]1C1OC21 (some centres not stated)
inactive: [1] inactive; negative | Test System: AMES SALMONELLA TYPHIMURIUM, Strain/Indicator: TA100, Metabolic Activation: RAT, LIVER, S-9, AROCLOR 1254 (10% OR 20%), Method: STANDARD PLATE inactive; negative

Cc1ccc(C(C)C)cc1O
inactive: [2] inactive; negative | [3] inactive; negative | [1] inactive; negative | [4] inactive; negative

CC(COc1ccccc1)N(CCCl)Cc1ccccc1 (configuration not stated)
inactive: Test System: AMES SALMONELLA TYPHIMURIUM, Strain/Indicator: TA1535, Metabolic Activation: NONE, Method: PREINCUBATION inactive; negative
active: Test System: AMES SALMONELLA TYPHIMURIUM, Strain/Indicator: TA97, Metabolic Activation: HAMSTER, LIVER, S-9, AROCLOR 1254 (10%), Method: PREINCUBATION active; positive | Test System: AMES SALMONELLA TYPHIMURIUM, Strain/Indicator: TA97, Metabolic Activation: NONE, Method: PREINCUBATION active; positive | Test System: AMES SALMONELLA TYPHIMURIUM, Strain/Indicator: TA97, Metabolic Activation: RAT, LIVER, S-9, AROCLOR 1254 (10%), Method: PREINCUBATION active; positive | Test System: AMES SALMONELLA TYPHIMURIUM, Strain/Indicator: TA98, Metabolic Activation: HAMSTER, LIVER, S-9, AROCLOR 1254 (10%), Method: PREINCUBATION active; positive | Test System: AMES SALMONELLA TYPHIMURIUM, Strain/Indicator: TA98, Metabolic Activation: NONE, Method: PREINCUBATION active; positive | Test System: AMES SALMONELLA TYPHIMURIUM, Strain/Indicator: TA98, Metabolic Activation: RAT, LIVER, S-9, AROCLOR 1254 (10%), Method: PREINCUBATION active; positive | Test System: AMES SALMONELLA TYPHIMURIUM, Strain/Indicator: TA100, Metabolic Activation: HAMSTER, LIVER, S-9, AROCLOR 1254 (10%), Method: PREINCUBATION active; positive | Test System: AMES SALMONELLA TYPHIMURIUM, Strain/Indicator: TA100, Metabolic Activation: NONE, Method: PREINCUBATION active; positive | Test System: AMES SALMONELLA TYPHIMURIUM, Strain/Indicator: TA100, Metabolic Activation: RAT, LIVER, S-9, AROCLOR 1254 (10%), Method: PREINCUBATION active; positive | Test System: AMES SALMONELLA TYPHIMURIUM, Strain/Indicator: TA1535, Metabolic Activation: HAMSTER, LIVER, S-9, AROCLOR 1254 (10%), Method: PREINCUBATION active; positive | Test System: AMES SALMONELLA TYPHIMURIUM, Strain/Indicator: TA1535, Metabolic Activation: RAT, LIVER, S-9, AROCLOR 1254 (10%), Method: PREINCUBATION active; positive

CC1CCC(C(C)C)C(OC(=O)c2ccccc2N)C1 (configuration not stated)
inactive: [5] inactive; negative | [2] inactive; negative | [6] inactive; negative | [7] inactive; negative | [1] inactive; negative | [8] inactive; negative | [9] inactive; negative | [10] inactive; negative | [11] inactive; negative | [12] inactive; negative | [13] inactive; negative | [14] inactive; negative | [15] inactive; negative | [16] inactive; negative | [17] inactive; negative | [18] inactive; negative. reevaluation of results: negative | [19] inactive; negative. reevaluation of results: equivocal

c1ccc2c(c1)cnc1ccccc12
active: Test System: AMES SALMONELLA TYPHIMURIUM, Strain/Indicator: TA98, Metabolic Activation: RAT, LIVER, S-9, PCB, Method: STANDARD PLATE active; positive | Test System: AMES SALMONELLA TYPHIMURIUM, Strain/Indicator: TA100, Metabolic Activation: RAT, LIVER, S-9, PCB, Method: STANDARD PLATE active; positive

CC(=O)Nc1ccc(-c2ccc(NO)cc2)cc1
active: Test System: CHINESE HAMSTER OVARY, Strain/Indicator: CHO-K1-BH4 (HGPRT), Metabolic Activation: NONE, Method: SUSPENSION active; positive

CCN(CC)c1ccc2cc(-c3nc4ccccc4n3C)c(=O)oc2c1
inactive: [16] inactive; negative | Test System: AMES SALMONELLA TYPHIMURIUM, Strain/Indicator: TA1538, Metabolic Activation: RAT, LIVER, S-9, AROCLOR 1254, Method: STANDARD PLATE inactive; negative

ONc1ccc2ccccc2c1
active: [2] active; positive | [3] active; positive | [1] active; positive | [4] active; positive | [10] active; positive | [16] active; positive

CCCCCCOC(=O)NO
active: Test System: E. COLI, Strain/Indicator: WP2 UVRA, Metabolic Activation: NONE, Method: FLUCTUATION TEST active; positive

Nc1nc2c(ncn2[C@@H]2C=C[C@H](CO)C2)c(=O)[nH]1
inactive: [5] inactive; negative | [2] inactive; negative | [6] inactive; negative | [7] inactive; negative | [1] inactive; negative | [8] inactive; negative | [9] inactive; negative | [10] inactive; negative | [11] inactive; negative | [12] inactive; negative | [13] inactive; negative | [14] inactive; negative | [15] inactive; negative | [16] inactive; negative | [17] inactive; negative | [18] inactive; negative. reevaluation of results: inconclusive | Test System: Mouse lymphoma, Strain/Indicator: L5178Y (tk+/tk-), Metabolic Activation: None, Method: Suspension/plate inactive; negative | Test System: Mouse lymphoma, Strain/Indicator: L5178Y (tk+/tk-), Metabolic Activation: Rat, Liver, S-9, Aroclor 1254, Method: Suspension/plate inactive; negative
active: [19] active; positive; reevaluation of results: positive

Cc1nn(C)c(Oc2ccccc2)c1/C=N/OCc1ccc(C(=O)OC(C)(C)C)cc1
inactive: End Point: In vitro chromosomal aberrations, Test System: Human lymphocytes/Male, Metabolic Activation: None inactive; negative | End Point: In vitro chromosomal aberrations, Test System: Human lymphocytes/Male, Metabolic Activation: Rat, Liver, S-9 inactive; negative | End Point: In vivol micronucleus, Species: Mouse, Strain/Sex: CD-1, Route: Oral inactive; negative

Clc1ccccc1-c1ccccc1
active: End Point: In vivo mutagenicity, Test System: Liver, Species: Rat, Strain/Sex: Big Blue/Male, Route: Intraperitoneal active; positive; statistically significant increase of mutant frequency of liver laci g
